Experimental data from patent US3950334A, “O-Alkyl-S-alkyl-O-[6-alkyl- or 6-halo-pyridazin-(3)-yl]-(thiono)thiol-phosphoric acid esters” (priority 1973, dated 1976).

Columns and labels:
warm-blooded animals = details: in words; known compounds; cited from earlier work
Toxicity test/peroral = details: in vivo, po; Albino rat, peroral, evaluation after 7 days
Description: Test animal: Albino rat (Rattus norvegicus)
To produce a suitable preparation of active compound, 3 parts by weight of active compound were mixed with 2.8 parts by weight of highly-dispersible silica and 4.2 parts by weight of talc. Suspensions which contained, in 1 ml of liquid, the amount of active compound to be applied per 100 g of animal weight, were prepared from the above active-compound concentrate, with a little added powdered vegetable gum, by grinding with water. Dosing was effected volumetrically after weighing the test animals. A steel knob-ended probe was used for oral administration. The evaluation was carried out in each case after the end of the above-mentioned time interval, calculated from the administration of the active compound.
The LD50 values (dose of active compound at which 50% of the treated animals were killed) were determined in the usual manner from the mortality figures of the doses, which were varied in geometrical progression.
The active compounds and LD50 values can be seen from the table which follows: […]

Musca domestica = assay: LT100 test for Diptera; type: in vivo; details: time for 100% destruction
Description: Test insects: Musca domestica
2 parts by weight of active compound were dissoled in 1,000 parts by volume of solvent. The solution so obtained was diluted with further solvent to the desired lower concentrations.
2.5 ml of the solution of active compound were pipetted into a Petri dish. On the bottom of the Petri dish there was a filter paper with a diameter of about 9.5 cm. The Petri dish remained uncovered until the solvent had completely evaporated. The amount of active compound per m^2 of filter paper varied with the concentration of the solution of active compound. About 25 test insects were then placed in the Petri dish and it was covered with a glass lid.
The condition of the test insects was continuously observed. The time which was necessary for 100% destruction was determined.
The test insects, the active compounds, the concentrations of the active compounds and the times at which there was 100% destruction can be seen from the following table: […]

[1] = system: two-spotted spider mite (Tetranychus urticae); assay: Tetranychus test (resistant); type: in vivo; details: 48 h, after 2 days, resistant Tetranychus urticae on bean plants, read-out: Degree of destruction in % after 2 days; for mortality at 0.01 %: active compound concentration 0.01 %; for mortality at 0.1 %: active compound concentration 0.1 %
Description: Tetranychus test (resistant)
Solvent: 3 parts by weight of acetone
Emulsifier: 1 part by weight of alkylaryl polyglycol ether
To produce a suitable preparation of active compound, 1 part by weight of the active compound was mixed with the stated amount of solvent containing the stated amount of emulsifier and the concentrate was diluted with water to the desired concentration.
These bean plants were heavily infested with the two-spotted spider mite (Tetranychus urticae) in all stages of development.
After the specified periods of time, the effectiveness of the preparation of active compound was determined by counting the dead mites. The degree of destruction thus obtained was expressed as a percentage: 100% means that all the spider mites were killed, whereas 0% means that none of the spider mites were killed.
The active compounds, the concentrations of the active compounds, the evaluation times and the results can be seen from the following table: […]

[2] = active compound concentration of the solution 0.02 %
[3] = active compound concentration of the solution 0.2 %

Row | SMILES | toxicity to warm-blooded animals (warm-blooded animals) | LD50 at 168 h (Toxicity test/peroral) | LT100 in hours (Musca domestica; [2]) | LT100 in minutes (') (Musca domestica; [3]) | mortality at 0.01 % [1] | mortality at 0.1 % [1] | LT100 in minutes (') (Musca domestica; [2])
1 | CCOP(=S)(OCC)Oc1ccc(C)nn1 [Compound B, O,O-diethyl-O-[6-methyl-pyridazin-(3)-yl]-thionophosphoric acid ester] | high toxicity to warm-blooded animals | 0.5 to 1 mg/kg | 8 h | 135 min | 20% | 100% | 
2 | CCCSP(=S)(OCC)Oc1ccc(Br)nn1 (stereo not drawn) [Compound 1, O-ethyl-S-n-propyl-O-[6-bromo-pyridazin(3)-yl]-thionothiolphosphoric acid ester] |  | 100 to 250 mg/kg |  |  | 100% | 100% | 
3 | CCOP(=S)(OCC)Oc1ccc(Cl)nn1 [Compound A, O,O-diethyl-O-[6-chloro-pyridazin-(3)-yl]-thionophosphoric acid ester] | high toxicity to warm-blooded animals | ~5 mg/kg |  |  |  |  | 
4 | CCCSP(=S)(OCC)Oc1ccc(C)nn1 (stereo not drawn) [Compound 2] |  | ~50 mg/kg |  |  |  |  | 
5 | CCCSP(=S)(OCC)Oc1ccc(Cl)nn1 (stereo not drawn) [Compound 3] |  | 100 to 250 mg/kg |  | 55 min |  |  | 165 min
